In one experiment the test system is L. innocua BL 86/26. Particulars: CDM, 30° C. How it is done:
(§1) CDM for growth of Lactococcus lactis and Listeria innocua was prepared as described in Example 1. As to Streptococcus thermophilus, a second Mn-free CDM supporting it growth was prepared essentially as described by Otto et al. (“The relation between growth rate and electrochemical proton gradient of Streptococcus cremoris.” FEMS Microbiology Letters 16.1 (1983): 69-74) with the following exceptions: All metals were used in the same final concentrations as listed in Table 4, and all amino acids were added to a final concentration of 0.08 g/L except for cysteine, which consisted of a final concentration of 0.5 g/L. Wolfe's vitamin solution was used in which DL-Ca-pantothenate was increased to have a final concentration of 400 mg/L, and urea and NaHCO3 were added to a final concentration of 0.12 and 0.42 g, respectively.
(§2) The following strains were tested: • 1. L. lactis single strain isolated from Fresco 1000NG-10 (Chr. Hansen A/S, Denmark) • 2. S. thermophilus single strain isolated from Fresco 1000NG-10 (Chr. Hansen A/S, Denmark) • 3. L. innocua BL 86/26
(§3) All strains were pre-grown to stationary phase cultures from −80° C. glycerol stocks in M17 broth with 1% (w/v) glucose, as standing cultures at 30° C. 1 mL of each culture was then washed twice with and resuspended in manganese-deficient CDM to remove residual manganese. 1 μL of each washed culture was then used to inoculate, in triplicate, a well of a 96-wells plate containing 200 μL CDM supplemented with 1% (w/v) glucose diluted from a 50% (w/v) stock solution dissolved in Milli-Q water, and in which manganese was left out, or added to a final concentration of 0.00006, 0.0006, 0.006, 0.06 or 0.6 mg L-1 manganese. Growth was followed by monitoring the absorbance at 600 nm at 30° C. in a Synergi H1 reader (BioTek, Winooski, VT, USA).

Experiment [1] relates to S. thermophilus single strain isolated from Fresco 1000NG-10. Particulars: second Mn-free CDM, 0 to 0.6 ppm manganese, 30° C. How it is done: as §1, §2, §3
For experiment [2], the system named is L. lactis single strain isolated from Fresco 1000NG-10. The settings on record: CDM, 0 to 0.6 ppm manganese, 30° C. How it is done: as §1, §2, §3
The subject of experiment [3] is four Listeria spp. strains (L. monocytogenes DSM 15675, mhl210, ATCC 13932; L. innocua BL 86/26). Particulars: for growth (absorbance at 600 nm): 30° C. As to the method: (§4) All the components were dissolved in 700 mL Milli-Q water to minimize traces of manganese, and the pH was set to 6.8 with KOH, after which the volume was adjusted to 1 L and filter-sterilized.
(§5) The following strains were tested: • 1. L. monocytogenes 1: DSM 15675 (obtainable from DSMZ) • 2. L. monocytogenes 2: mhl210 (obtainable from the Copenhagen University from Department of Veterinary and Animal Sciences, Section for Food Safety and Zoonoses) • 3. L. monocytogenes 3: ATCC 13932 (obtainable from ATCC) • 4. L. innocua BL 86/26 • 5. L. lactis subsp. cremoris MG1363 (MoBiTec GmbH, Germany)
(§6) L. innocua BL 86/26 and L. lactis MG1363 were pre-grown from -80° C. glycerol stocks in M17 broth with 1% (w/v) glucose. The three L. monocytogenes were pre-grown from −80° C. glycerol stocks in BHI. All cultures were incubated overnight as standing cultures at 30° C., resulting in stationary phase cultures. The next day, 1 mL of each culture was washed twice with and resuspended in manganese-deficient CDM to remove residual manganese. 1 μL of each washed culture was then used to inoculate, in triplicate, a well of a 96-wells plate containing 200 μL CDM supplemented with 1% glucose diluted from a 50% (w/v) stock solution dissolved in demineralized water, in which manganese was left out, or added to a final concentration of 0.00006, 0.0006, 0.006, 0.06 or 0.6 mg L^−1 manganese. Growth was followed by monitoring the absorbance at 600 nm at 30° C. in a Synergi H1 reader (BioTek, Winooski, VT, USA). This experiment was repeated twice on separate days to check reproducibility.

In experiment [4] the test system is L. lactis subsp. cremoris MG1363. Particulars: same CDM. As to the method: as §4, §5, §6

Read-outs that look alike come from different tables or passages of the source.

As for `[Mn+2]` [manganese], the “manganese required for growth to occur” value in the experiment with L. innocua BL 86/26 was “more than 0.0006 ppm”. Moreover, the figures for the “growth on depletion of manganese” value in experiment [1], in experiment [2] and in experiment [4] were “minimally inhibited”, “minimally inhibited” and “hardly inhibited”, respectively. In addition, the “growth (absorbance at 600 nm)” value in experiment [3] (0.0006 ppm manganese added to CDM) is listed as “severely hampered”; in experiment [3] (0.006 ppm manganese added to CDM), “some growth defects”; in experiment [3] (0.06 ppm manganese added to CDM), “no growth defect”; in experiment [3] (0.6 ppm manganese added to CDM), “no growth defect”. Further, the “manganese concentration below which inhibition of Listeria can be seen” value in experiment [3] (CDM) is recorded as “below 0.006 ppm”. In addition, in experiment [3] (CDM), the “manganese concentration that restored the growth of Listeria” value is “above 0.006 ppm”. The “time the inhibitory effect due to low manganese levels is maintained” value in experiment [3] (low manganese levels in CDM) is “at least 20 hours”.

Values taken from US20230292780A1, “LISTERIA INHIBITION BY MANGANESE DEPLETION” (Chr. Hansen A/S, priority 2020, published 2023).
